According to patent publication US11066409B2, “Bicyclic nitrogen-containing heterocyclic derivatives and pharmaceutical composition comprising the same” (Shionogi & Co., Ltd., priority 2016, dated 2021):

What follows are molecules tested against human P2X7 receptor (Homo sapiens (Human), UniProt Q99572, R270H) (assay: Evaluation of a human P2X7 receptor inhibitory activity (Yo-Pro uptake, BzATP stimulation, FLIPR TETRA)). Conditions: 1321N1 cells stably expressing human P2X7 receptor, Yo-Pro fluorescence.
Sequence of human P2X7 receptor (Q99572 whole entry R270H): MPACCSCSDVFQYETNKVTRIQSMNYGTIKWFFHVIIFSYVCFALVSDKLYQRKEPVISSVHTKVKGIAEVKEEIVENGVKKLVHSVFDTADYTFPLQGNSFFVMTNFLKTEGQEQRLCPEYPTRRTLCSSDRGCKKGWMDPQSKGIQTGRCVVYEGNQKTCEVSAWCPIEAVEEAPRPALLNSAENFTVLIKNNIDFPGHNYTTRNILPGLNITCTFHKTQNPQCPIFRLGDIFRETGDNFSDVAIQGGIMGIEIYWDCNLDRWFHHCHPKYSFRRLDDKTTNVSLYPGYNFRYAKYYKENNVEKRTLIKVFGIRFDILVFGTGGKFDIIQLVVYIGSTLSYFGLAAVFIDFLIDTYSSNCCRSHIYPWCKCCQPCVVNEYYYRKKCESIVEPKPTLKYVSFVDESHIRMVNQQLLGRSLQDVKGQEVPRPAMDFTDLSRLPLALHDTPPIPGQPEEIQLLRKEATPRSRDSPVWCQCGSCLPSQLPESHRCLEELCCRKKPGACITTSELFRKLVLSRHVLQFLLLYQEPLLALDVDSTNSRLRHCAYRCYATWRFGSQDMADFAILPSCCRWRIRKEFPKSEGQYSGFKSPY
Format: cell-based
Method: Evaluation of a human P2X7 receptor inhibitory activity Stably expressing cell line (1321N1 cell transfected with the human P2X7 receptor gene (GenBank accession number NM_002562.5 including T606C and G952A SNP)) was used. The cells were seeded in a 384-well microtiter plate at a concentration of 8000 cells/well and cultured in the medium (10% fetal bovine serum, 25 mM HEPES, 1% penicillin and streptomycin in DMEM) for one day at 37° C. under 5% carbon dioxide atmosphere. After replacing with 20 μL of the HBSS buffer (20 mM HEPES, 55.6 mM D-glucose, 1× HBSS(−), pH7.4-7.5), 15 μL of 17.3 μM Yo-Pro solution in the HBSS buffer was added. The plate was placed in high-throughput cellular screening system FLIPR TETRA (Molecullar Devices, LLC.) and 15 μL of 130 μM BzATP solution in the HBSS buffer was added. Measurement of fluorescence intensity by FLIPR TETRA was started. After eight minutes, 15 μL of DMSO solutions containing different concentrations of the compound of the present invention as prepared by dilution with the HBSS buffer were dispensed to each well through the built-in automatic dispenser, and the measurement of fluorescence intensity was continued for 20 minutes. The maximum fluorescence intensity without the compound of the present invention is calculated as 0% inhibition and the maximum fluorescence intensity when the reference compound was added is calculated as 100% inhibition. Changing values of fluorescence intensity by the compound of the present invention were calculated by difference between maximum and minimum fluorescence intensity for 20 minutes. Inhibition ratios (%) were calculated from the following equation:
[formula] IC50 was calculated using logistic approximation.
As for IC50 value, value to below 10 nmol/L is represented as “A”, value from 10 nmol/L to below 100 nmol/L is represented as “B”, value from 100 nmol/L to below 500 nmol/L is represented as “C”, and value from 500 nmol/L to below 1 μmol/L is represented as “D”.
With `COc1cc(NC2=NC(=O)N(C)C3=NCC(c4ccc(F)cc4)N23)c(C)cc1F` (stereo not drawn) [Compound I-0150] the IC50 was 18 nM.
`COc1ccc(NC2=NC(=O)N(C)C3=NCC(c4ccc(F)cc4)N23)c(C)c1F` (stereo not drawn) [Compound I-0151] showed an IC50 of 14 nM.

Same assay, conditions: 1321N1 cells stably expressing human P2X7 receptor, Yo-Pro fluorescence, class symbols
Work on `COc1ccc(NC2=NC(=O)N(C)C3=NCC(c4cc(F)cc(F)c4)N23)c(C)n1` (stereo not drawn) [Compound I-0144] yielded an IC50 of 10 to 100 nM.
`Cc1ccc(C#N)cc1NC1=NC(=O)N(C)C2=NCC(c3cc(F)cc(F)c3)N12` (stereo not drawn) [Compound I-0146] was tested, and the IC50 was 10 to 100 nM.
`COc1cc(NC2=NC(=O)N(C)C3=NCC(c4cc(F)cc(F)c4)N23)c(C)cc1F` (stereo not drawn) [Compound I-0148] gave an IC50 of 10 to 100 nM.
Molecule `COc1cc(C)c(Nc2nc(=O)c(F)c3n2C(c2ccc(F)cc2)CN3C)cc1OC` (stereo not drawn) [Compound I-0152] has an IC50 of 10 to 100 nM.
In the case of `COc1cc(C)c(Nc2nc(=O)nc3n2C(c2cc(F)c(F)c(F)c2)CN3)cc1OC` (stereo not drawn) [Compound I-0153], the IC50 is reported as 10 to 100 nM.
`CCc1nc(OC)ccc1NC1=NC(=O)N(C)C2=NCC(c3cc(F)cc(F)c3)N12` (stereo not drawn) [Compound I-0155] showed an IC50 of 10 to 100 nM.
`Cc1nc2cc(C)c(NC3=NC(=O)N(C)C4=NCC(c5cc(F)c(F)c(F)c5)N34)cc2s1` (stereo not drawn) [Compound I-0156] gave an IC50 of 10 to 100 nM.
With `CCOc1cc(NC2=NC(=O)N(C)C3=NCC(c4cc(F)c(F)c(F)c4)N23)c(C)cc1F` (stereo not drawn) [Compound I-0157] the IC50 was 10 to 100 nM.
`COc1nc(C)c(NC2=NC(=O)N(C)C3=NCC(c4cc(F)c(F)c(F)c4)N23)cc1C` (stereo not drawn) [Compound I-0159] was tested, and the IC50 was 10 to 100 nM.
Molecule `COc1ccc(Nc2nc(=O)c(F)c3n2C(c2ccc(F)cc2)CN3C)c(C)n1` (stereo not drawn) [Compound I-0160] has an IC50 of 10 to 100 nM.
With `COc1ccc(Nc2nc(=O)c(F)c3n2C(c2cc(F)c(F)c(F)c2)CN3)c(C)n1` (stereo not drawn) [Compound I-0163] the IC50 was 10 to 100 nM.
For `CCOc1ccc(NC2=NC(=O)N(C)C3=NCC(c4cc(F)c(F)c(F)c4)N23)c(CC)n1` (stereo not drawn) [Compound I-0165], the IC50 was 10 to 100 nM.
Work on `COc1ccc(C)c(Nc2nc(=O)c(F)c3n2C(c2cc(F)c(F)c(F)c2)CN3)c1` (stereo not drawn) [Compound I-0166] yielded an IC50 of 10 to 100 nM.
With `COc1cc(NC2=NC(=O)N(C)C3=NCC(c4cc(F)c(F)c(F)c4)N23)c(C)nc1OC` (stereo not drawn) [Compound I-0167] the IC50 was 100 to 500 nM.
With `COCCOc1ccc(C)c(NC2=NC(=O)N(C)C3=NCC(Cc4ccccc4)N23)c1` (stereo not drawn) [Compound I-0169] the IC50 was 10 to 100 nM.
`COc1cc(C)c(Nc2nc(=O)n(C)c3ncn(Cc4ccccc4)c23)cc1OC` [Compound I-0170] showed an IC50 of 10 to 100 nM.
Work on `Cc1cc(F)c(OCCO)cc1NC1=NC(=O)N(C)C2=NCC(c3cc(F)c(F)c(F)c3)N12` (stereo not drawn) [Compound I-0172] yielded an IC50 of 10 to 100 nM.
`COc1ccc(C)c(Nc2nc(=O)n(C)c3ncn(Cc4ccccc4)c23)c1` [Compound I-0173] was tested, and the IC50 was 500 to 1000 nM.
For `COc1ccc(Nc2nc(=O)n(C)c3ncn(Cc4ccccc4)c23)c(C)c1` [Compound I-0174], the IC50 was 100 to 500 nM.
`Cc1ncc(CO)cc1NC1=NC(=O)N(C)C2=NCC(c3cc(F)c(F)c(F)c3)N12` (stereo not drawn) [Compound I-0175] showed an IC50 of 10 to 100 nM.
Work on `Cc1ccc(C)c(NC2=NC(=O)N(C)C3=NCC(Cc4ccccc4)N23)c1` (stereo not drawn) [Compound I-0177] yielded an IC50 of 100 to 500 nM.
Molecule `Cc1ccc(CO)cc1NC1=NC(=O)NC2=NCC(c3cc(F)c(F)c(F)c3)N21` (stereo not drawn) [Compound I-0178] has an IC50 of 10 to 100 nM.
Work on `Cc1ccc(CO)cc1NC1=NC(=O)N(C)C2=NCC(Cc3ccccc3)N12` (stereo not drawn) [Compound I-0179] yielded an IC50 of 100 to 500 nM.
For `CCc1ccc(CO)cc1NC1=NC(=O)NC2=NCC(c3cc(F)c(F)c(F)c3)N21` (stereo not drawn) [Compound I-0180], the IC50 was 10 to 100 nM.
`Cc1ccc(CCCO)cc1NC1=NC(=O)N(C)C2=NCC(c3cc(F)c(F)c(F)c3)N12` (stereo not drawn) [Compound I-0181] was tested, and the IC50 was 10 to 100 nM.
`COc1nc(C)c(NC2=NC(=O)N(C)C3=NCC(c4cc(F)c(F)c(F)c4)N23)cc1CO` (stereo not drawn) [Compound I-0182] was tested, and the IC50 was 10 to 100 nM.
In the case of `CCc1ccc(CO)cc1NC1=NC(=O)N(C)C2=NCC(Cc3ccccc3)N12` (stereo not drawn) [Compound I-0183], the IC50 is reported as 100 to 500 nM.
`Cc1ccc(CC(F)(F)CO)cc1NC1=NC(=O)N(C)C2=NCC(c3cc(F)c(F)c(F)c3)N12` (stereo not drawn) [Compound I-0184] showed an IC50 of 10 to 100 nM.
`Cc1ccc(O[C@H]2C[C@@H](CO)C2)cc1NC1=NC(=O)N(C)C2=NCC(c3cc(F)c(F)c(F)c3)N12` (stereo partly drawn) [Compound I-0185] showed an IC50 of 10 to 100 nM.
`Cc1ccc(O[C@H]2C[C@H](CO)C2)cc1NC1=NC(=O)N(C)C2=NCC(c3cc(F)c(F)c(F)c3)N12` (stereo partly drawn) [Compound I-0186] was tested, and the IC50 was 10 to 100 nM.
`Cc1cc2cnn(CCO)c2cc1NC1=NC(=O)N(C)C2=NCC(c3cc(F)c(F)c(F)c3)N12` (stereo not drawn) [Compound I-0187] gave an IC50 of 10 to 100 nM.
`Cc1ccc(C#N)cc1NC1=NC(=O)N(CCO)C2=NCC(c3cc(F)c(F)c(F)c3)N12` (stereo not drawn) [Compound I-0189] was tested, and the IC50 was 10 to 100 nM.
`Cc1ccc(OC[C@H]2C[C@H](O)C2)cc1NC1=NC(=O)N(C)C2=NCC(c3cc(F)c(F)c(F)c3)N12` (stereo partly drawn) [Compound I-0190] gave an IC50 of 10 to 100 nM.
`Cc1ccc(C=O)cc1NC1=NC(=O)N(C)C2=NCC(c3cc(F)c(F)c(F)c3)N12` (stereo not drawn) [Compound I-0191] gave an IC50 of 10 to 100 nM.
`Cc1ccc(Oc2ccccn2)cc1NC1=NC(=O)N(C)C2=NCC(c3cc(F)c(F)c(F)c3)N12` (stereo not drawn) [Compound I-0193] gave an IC50 of 10 to 100 nM.
For `Cc1ccc(CCO)cc1NC1=NC(=O)N(C)C2=NCC(c3cc(F)c(F)c(F)c3)N12` (stereo not drawn) [Compound I-0194], the IC50 was 10 to 100 nM.
In the case of `Cc1ccc(CO)cc1NC1=NC(=O)N(C)C2=NCC(c3cc(F)nc(F)c3)N12` (stereo not drawn) [Compound I-0195], the IC50 is reported as 10 to 100 nM.
`CN1C(=O)N=C(NCc2ccccc2F)N2C1=NCC2c1cc(F)c(F)c(F)c1` (stereo not drawn) [Compound I-0196] showed an IC50 of 10 to 100 nM.
`CN1C(=O)N=C(NCc2cccc(F)c2)N2C1=NCC2c1cc(F)c(F)c(F)c1` (stereo not drawn) [Compound I-0197] showed an IC50 of 10 to 100 nM.
`CN1C(=O)N=C(NCc2ccc(F)cc2)N2C1=NCC2c1cc(F)c(F)c(F)c1` (stereo not drawn) [Compound I-0198] showed an IC50 of 10 to 100 nM.
Work on `Cc1ccc(OCCS(C)(=O)=O)cc1NC1=NC(=O)N(C)C2=NCC(c3cc(F)c(F)c(F)c3)N12` (stereo not drawn) [Compound I-0199] yielded an IC50 of 10 to 100 nM.
`Cc1ccc(OCC#N)cc1NC1=NC(=O)N(C)C2=NCC(c3cc(F)c(F)c(F)c3)N12` (stereo not drawn) [Compound I-0200] gave an IC50 of 10 to 100 nM.
Molecule `COCCc1ccc(C)c(NC2=NC(=O)N(C)C3=NCC(c4cc(F)c(F)c(F)c4)N23)c1` (stereo not drawn) [Compound I-0202] has an IC50 of 10 to 100 nM.
In the case of `COCC(F)(F)Oc1ccc(C)c(NC2=NC(=O)N(C)C3=NCC(c4cc(F)c(F)c(F)c4)N23)c1` (stereo not drawn) [Compound I-0203], the IC50 is reported as 10 to 100 nM.
For `Cc1ccc(OC(F)(F)CO)cc1NC1=NC(=O)N(C)C2=NCC(c3cc(F)c(F)c(F)c3)N12` (stereo not drawn) [Compound I-0204], the IC50 was 10 to 100 nM.
Molecule `COCC(F)(F)c1ccc(C)c(NC2=NC(=O)N(C)C3=NCC(c4cc(F)c(F)c(F)c4)N23)c1` (stereo not drawn) [Compound I-0205] has an IC50 of 10 to 100 nM.
For `Cc1ccc(C(F)(F)CO)cc1NC1=NC(=O)N(C)C2=NCC(c3cc(F)c(F)c(F)c3)N12` (stereo not drawn) [Compound I-0206], the IC50 was 10 to 100 nM.
`COc1ccc([C@@H](C)NC2=NC(=O)N(C)C3=NCC(c4cc(F)c(F)c(F)c4)N23)cc1` (stereo partly drawn) [Compound I-0207] was tested, and the IC50 was 100 to 500 nM.
`Cc1cc(C#N)ccc1NC1=NC(=O)N(C)C2=NCC(c3cc(F)c(F)c(F)c3)N12` (stereo not drawn) [Compound I-0208] showed an IC50 of 10 to 100 nM.
Work on `COc1cc(NC2=NC(=O)N(C)C3=NCC(c4cc(F)c(F)c(F)c4)N23)c(C)cc1C#N` (stereo not drawn) [Compound I-0209] yielded an IC50 of 10 to 100 nM.
`CN1C(=O)N=C(Nc2cc(C#N)ccc2F)N2C1=NCC2c1cc(F)c(F)c(F)c1` (stereo not drawn) [Compound I-0210] gave an IC50 of 10 to 100 nM.
Molecule `Cc1cc(F)c(C#N)cc1NC1=NC(=O)N(C)C2=NCC(c3cc(F)c(F)c(F)c3)N12` (stereo not drawn) [Compound I-0211] has an IC50 of 10 to 100 nM.
`Cc1c(F)cc(C#N)cc1NC1=NC(=O)N(C)C2=NCC(c3cc(F)c(F)c(F)c3)N12` (stereo not drawn) [Compound I-0212] was tested, and the IC50 was 10 to 100 nM.
For `Cc1ccc(C2=NCCO2)cc1NC1=NC(=O)N(C)C2=NCC(c3cc(F)c(F)c(F)c3)N12` (stereo not drawn) [Compound I-0213], the IC50 was 10 to 100 nM.
`Cc1cc(F)c(C2=NCCO2)cc1NC1=NC(=O)N(C)C2=NCC(c3cc(F)c(F)c(F)c3)N12` (stereo not drawn) [Compound I-0214] showed an IC50 of 10 to 100 nM.
